{"source": "patent US10317409B2", "about": "“Glycosylation site-specific antibodies and anti-cancer compounds” (Detroit R&D, Inc., priority 2013, dated 2019)", "key": {"[1]": {"system": "O-GlcNAcylated c-myc in MCF-7 cells", "assay": "Western blot of O-GlcNAcylated c-myc levels in MCF-7 cells", "type": "cell-based", "conditions": "for O-GlcNAcylated c-myc level: MCF-7, 4 hr", "description": "MCF-7 breast cancer cells were treated for 24 hr with 1% DMSO, with an O-GlcNAcase inhibitor, streptozotocin (STZ), with N6-methyladenosine 5′-monophosphate (an O-GlcNAcase inhibitor discovered through by screening with the pseudofluorescent substrate 4-methylumbelliferol (4-MU)-GlcNAc (7)) or with media (control) (FIG. 5).\n(§1) O-GlcNAcase inhibitors, which increased O-GlcNAcylation levels of proteins by preventing cleavage of an O-GlcNAc moiety of Ser or Thr residues, were identified using the antibodies of the present invention. MCF-7 breast cancer cells (FIG. 6. Panel A, Lanes 1-4) and MCF10A normal breast cells (FIG. 6. Panel A, Lanes 5-8) were treated for 4 hr with 1% DMSO (FIG. 6, Panel A, Lanes 1 and 5), the O-GlcNAcase inhibitors acetazolamide (FIG. 6, Panel A, Lanes 2 and 6) and N6-methyladenosine 5′-monophosphate (FIG. 6, Panel A, Lanes […] and 7) or media (control) (FIG. 6, Panel A, Lanes 4 and 8). Western blot analysis (8-16% gel) was carried out with cell lysates (20 μg/lane) using antibodies for O-GlcNAcylated c-myc (Peptide #1-G, 5,000-fold diluted).\n(§2) Western blot analysis was carried out with 10% gel electrophoresis using nuclear lysates obtained from MCF-7 cells with antibodies for O-GlcNAcylated c-myc (Peptide #2-0). […] There was no increase in unmodified c-myc protein after ketoconazole treatment as verified with antibodies for unmodified c-myc (Peptide #2-N) by Western blot analysis.\nMCF-7 cells were treated for 4 hr with 1% DMSO (negative control) or 2 mM ketoconazole in DMSO and an O-GlcNAcylated c-myc band was detected using a second antibody for O-GlcNAcylated c-myc (Peptide #1-G)."}, "[2]": {"system": "O-GlcNAcylated c-myc in MCF10A cells", "assay": "Western blot of O-GlcNAcylated c-myc levels in MCF10A cells", "type": "cell-based", "conditions": "4 hr treatment, cell lysates, FIG. 6A", "description": "as §1"}, "[3]": {"system": "O-GlcNAcylated p53 in MCF-7 cells", "assay": "Western blot of O-GlcNAcylated p53 levels in MCF-7 cells", "type": "cell-based", "conditions": "MCF-7, 24 hr, 2 mM, cytosol-containing supernatants, FIG. 7B", "description": "MCF-7 cells were grown for 24 hr with treatment of 1% DMSO (negative control) or 2 mM STZ or acetazolamide dissolved in DMSO or 2 mM N6-methyladenosine 5′-monophosphate dissolved in media. The cells were harvested and cytosol-containing supernatants were obtained."}, "[4]": {"system": "unmodified c-myc in MCF-7 cells", "assay": "Western blot of unmodified c-myc in MCF-7 cells", "type": "cell-based", "conditions": "MCF-7, 4 hr, 2 mM, antibody Peptide #2-N", "description": "as §2"}, "MCF-7 and MCF10A cells": {"system": "MCF-7 and MCF10A cells", "assay": "Lactate dehydrogenase (LDH) cytotoxicity assay", "type": "cell-based", "conditions": "2 mM, 4 hr, LDH release", "description": "Increased O-GlcNAcylated c-myc levels in MCF-7 cells induced cell death. MCF-7 tumor cell death after 2 mM ketoconazole treatment was compared with MCF10A normal cell death by LDH cytotoxicity assay. After treatment of cells for 4 hr, extracellular media and Triton X-100 solubilized cells were obtained and oxidation of NADH to NAD+ in both fractions was monitored for 2 min at a 340 nm to obtain total (media+cells) LDH release."}, "HT29 colon cancer cells [5]": {"system": "HT29 colon cancer cells", "assay": "Cell proliferation assay (MTT)", "type": "cell-based, human", "source_text": "(§3) […] The cell number was counted after staining the cells with 3-(4,5-dimethylthiazol-2-yl)2,5-diphenyl-tetrazolium bromide (MTT)."}, "SW480 colon cancer cells [6]": {"system": "SW480 colon cancer cells", "assay": "Cell proliferation assay (MTT)", "type": "cell-based, human", "source_text": "as §3"}, "A549 lung cancer cells": {"system": "A549 lung cancer cells", "assay": "Cell proliferation assay (MTT)", "type": "cell-based", "conditions": "Homo sapiens, A549, 50 μM for 72 hr", "description": "(§4) Cell proliferation assays were carried out after seeding 3,000-5,000 cells in a 96-well plate with and without treatment of 50 μM ketoconazole dissolved in DMSO (final concentration, 1%) for 72 hr (FIG. 8, Panel A). The cell number was counted after staining the cells with 3-(4,5-dimethylthiazol-2-yl)2,5-diphenyl-tetrazolium bromide (MTT)."}, "H1437 lung cancer cells": {"system": "H1437 lung cancer cells", "assay": "Cell proliferation assay (MTT)", "type": "cell-based", "conditions": "Homo sapiens, NCI-H1437, H1437, 50 μM for 72 hr", "description": "as §4"}, "[7]": {"system": "Mia Paca-2 pancreatic cancer cells", "assay": "Cell proliferation assay (MTT)", "type": "cell-based", "conditions": "Homo sapiens, Mia Paca-2, 50 μM for 72 hr", "description": "as §4"}, "PANC1 cells": {"system": "PANC1 cells", "assay": "Cell proliferation assay (MTT)", "type": "cell-based", "conditions": "PANC1, same treatments, 72 hr", "description": "as §4"}, "[8]": {"system": "MCF-7 breast cancer cells", "assay": "Cell proliferation", "type": "cell-based", "description": "as §4"}, "HT29 colon cancer cells [9]": {"system": "HT29 colon cancer cells", "assay": "QCM ECMatrix cell invasion assay", "type": "cell-based, human", "conditions": "HT29, 100 μM, 72 hr", "description": "(§5) Cell invasiveness of SW480 and HT29 human colon adenocarcinoma cells and MCF10CA1A breast cancer cells with and without 72 hr treatment with 100 μM ketoconazole was studied in 24-well plates using the QCM ECMatrix cell invasion assay kit (EMD Millipore)."}, "SW480 colon cancer cells [10]": {"system": "SW480 colon cancer cells", "assay": "QCM ECMatrix cell invasion assay", "type": "cell-based, human", "conditions": "SW480, 100 μM, 72 hr", "description": "as §5"}, "[11]": {"system": "MCF10CA1A breast cancer cells", "assay": "QCM ECMatrix cell invasion assay", "type": "cell-based", "conditions": "100 μM, 72 hr", "description": "as §5"}, "[12]": {"system": "Mia Paca-2 pancreatic cancer cells", "assay": "Wound healing assay (cell migration)", "type": "cell-based", "conditions": "Mia Paca-2, 100 μM", "description": "(§6) Wound healing assays were also carried out to verify inhibition of cell migration after ketoconazole treatment."}, "[13]": {"system": "PANC1 pancreatic cancer cells", "assay": "Wound healing assay (cell migration)", "type": "cell-based", "conditions": "PANC1, 100 μM", "description": "as §6"}, "HT29 colon cancer cells [14]": {"system": "HT29 colon cancer cells", "assay": "Wound healing assay (cell migration)", "type": "cell-based, human", "conditions": "HT29, 100 μM", "description": "as §6"}, "SW480 colon cancer cells [15]": {"system": "SW480 colon cancer cells", "assay": "Wound healing assay (cell migration)", "type": "cell-based, human", "conditions": "SW480, 100 μM", "description": "as §6"}, "[16]": {"system": "Thr-58-O-GlcNAcylated c-myc in PANC-1 cells", "assay": "Thr-58-O-GlcNAcylated c-myc expression in PANC-1 cells", "type": "cell-based", "conditions": "PANC-1, after ketoconazole treatment"}, "[17]": {"conditions": "MCF-7, 24 hr treatment, 2 mM, nuclear lysates, FIG. 5"}, "[18]": {"conditions": "MCF-7, 4 hr treatment, cell lysates, FIG. 6A"}, "[19]": {"conditions": "2 mM, nuclear lysates, antibody Peptide #2-G, FIG. 6B"}}, "note": "Entries after “also recorded” stand apart in the source; their conditions may differ."}
{"smiles": "CN(N=O)C(=O)N[C@H]1C(O)O[C@H](CO)[C@@H](O)[C@@H]1O", "note": "(mixture of isomers) [STZ, streptozotocin]", "values": [{"measurement": "O-GlcNAcylated c-myc levels", "setting": "[1]; [17]", "value": "failed to increase"}]}
{"smiles": "CNc1ncnc2c1ncn2[C@@H]1O[C@H](COP(=O)(O)O)[C@@H](O)[C@H]1O", "note": "[N6-methyladenosine 5′-monophosphate]", "values": [{"measurement": "O-GlcNAcylated c-myc levels", "setting": "[1]; [18]", "value": "failed to increase"}, {"measurement": "O-GlcNAcylated c-myc levels", "setting": "[1]; [17]", "value": "failed to increase"}, {"measurement": "O-GlcNAcylated c-myc levels", "setting": "[2]", "value": "failed to increase"}, {"measurement": "Levels of O-GlcNAcylated p53", "setting": "[3]", "value": "increased"}]}
{"smiles": "CC(=O)Nc1nnc(S(N)(=O)=O)s1", "note": "[acetazolamide]", "values": [{"measurement": "O-GlcNAcylated c-myc levels", "setting": "[1]; [18]", "value": "failed to increase"}, {"measurement": "O-GlcNAcylated c-myc levels in nucleus", "setting": "[1]; MCF-7, 24 hr, 2 mM, data not shown", "value": "did not increase"}, {"measurement": "O-GlcNAcylated c-myc levels", "setting": "[2]", "value": "failed to increase"}, {"measurement": "Levels of O-GlcNAcylated p53", "setting": "[3]", "value": "increased"}]}
{"smiles": "O=C1CC2(CCCC2)CC(=O)N1CCCCN1CCN(c2ncccn2)CC1", "note": "[buspirone]", "values": [{"measurement": "O-GlcNAcylated c-myc level", "setting": "[1]; [19]", "value": "did not increase"}]}
{"smiles": "CC(=O)N1CCN(c2ccc(OCC3COC(Cn4ccnc4)(c4ccc(Cl)cc4Cl)O3)cc2)CC1", "note": "(stereo not shown) [ketoconazole]", "values": [{"measurement": "O-GlcNAcylated c-myc level", "setting": "[1]; [19]", "value": "dramatically increased"}, {"measurement": "O-GlcNAcylated c-myc level", "setting": "[1]; 2 mM, second antibody Peptide #1-G, FIG. 6C", "value": "dramatically increased"}, {"measurement": "unmodified c-myc protein", "setting": "[4]", "value": "no increase"}, {"measurement": "increased cell death in MCF-7 cells higher than in MCF10A cells", "setting": "MCF-7 and MCF10A cells", "value": 84, "unit": "%"}, {"measurement": "cell proliferation", "setting": "HT29 colon cancer cells [5]; HT29, 100 μM", "value": "inhibited"}, {"measurement": "inhibition at 50 µM", "setting": "HT29 colon cancer cells [5]; Homo sapiens, HT-29, HT29, 50 μM for 72 hr, MTT", "value": 67.4, "unit": "%"}, {"measurement": "inhibition at 50 µM", "setting": "SW480 colon cancer cells [6]; Homo sapiens, SW480, 50 μM for 72 hr, MTT", "value": 63.3, "unit": "%"}, {"measurement": "cell proliferation", "setting": "SW480 colon cancer cells [6]; SW480, 100 μM", "value": "inhibited"}, {"measurement": "inhibition at 50 µM", "setting": "A549 lung cancer cells", "value": 51.3, "unit": "%"}, {"measurement": "inhibition at 50 µM", "setting": "H1437 lung cancer cells", "value": 44.9, "unit": "%"}, {"measurement": "inhibition at 50 µM", "setting": "[7]", "value": 60.2, "unit": "%"}, {"measurement": "inhibition of cell proliferation", "setting": "PANC1 cells", "value": "failed to inhibit; also recorded: no significant differences"}, {"measurement": "proliferation of MCF-7 breast cancer cells", "setting": "[8]", "value": "inhibited"}, {"measurement": "cell invasiveness", "setting": "HT29 colon cancer cells [9]", "value": "loss of cell invasiveness"}, {"measurement": "inhibition at 100 µM", "setting": "HT29 colon cancer cells [9]; Homo sapiens, HT-29, read-out: inhibition of migration in cell invasion assay", "value": 100, "unit": "%"}, {"measurement": "inhibition at 100 µM", "setting": "SW480 colon cancer cells [10]; Homo sapiens, read-out: inhibition of migration in cell invasion assay", "value": 100, "unit": "%"}, {"measurement": "cell invasiveness", "setting": "SW480 colon cancer cells [10]", "value": "loss of cell invasiveness"}, {"measurement": "cell invasiveness", "setting": "[11]", "value": "partially inhibited"}, {"measurement": "cell invasiveness", "setting": "[11]; listed as Ketoconazole", "value": "slight loss of cell invasiveness"}, {"measurement": "inhibition at 100 µM", "setting": "[12]; Homo sapiens, 24 and 48 hr, (36/46 × 100) and (43/55 × 100)", "value": 78, "unit": "%"}, {"measurement": "% cells migrated toward a scratched field", "setting": "[12]; 0 hr", "value": 0, "unit": "%"}, {"measurement": "% cells migrated toward a scratched field", "setting": "[12]; 24 hr", "value": 11.6, "unit": "%"}, {"measurement": "% cells migrated toward a scratched field", "setting": "[12]; 24 hr, listed as Ketoconazole", "value": 10, "unit": "%"}, {"measurement": "% cells migrated toward a scratched field", "setting": "[12]; 48 hr", "value": 12, "unit": "%"}, {"measurement": "inhibition of cell migration", "setting": "[13]", "value": "no significant differences"}, {"measurement": "% cells migrated toward a scratched field", "setting": "[13]; 0 hr", "value": 0, "unit": "%"}, {"measurement": "% cells migrated toward a scratched field", "setting": "[13]; 24 hr", "value": 6, "unit": "%"}, {"measurement": "% cells migrated toward a scratched field", "setting": "[13]; 48 hr", "value": 11, "unit": "%"}, {"measurement": "Percent of cells migrated toward a scratched field", "setting": "HT29 colon cancer cells [14]; 0 hr", "value": 0, "unit": "%"}, {"measurement": "Percent of cells migrated toward a scratched field", "setting": "HT29 colon cancer cells [14]; 24 hr", "value": 8, "unit": "%"}, {"measurement": "Percent of cells migrated toward a scratched field", "setting": "SW480 colon cancer cells [15]; 0 hr", "value": 0, "unit": "%"}, {"measurement": "Percent of cells migrated toward a scratched field", "setting": "SW480 colon cancer cells [15]; 24 hr", "value": 27, "unit": "%"}, {"measurement": "Thr-58-O-GlcNAcylated c-myc expression", "setting": "[16]", "value": "failed to increase"}]}
